Results on 3 molecules are retold here after publication PMC5650142, “GPR40 partial agonists and AgoPAMs: Differentiating effects on glucose and hormonal secretions in the rodent” (PLoS ONE, 2017).

“And” between values parts separate entries of the source, which are not always exact repeats. Equal values may be shown once. Read-outs that look alike come from different tables or passages of the source.

One assay has as its target T1, rat GPR40 (Rattus norvegicus, UniProt Q8K3T4).
T1 construct: expressed in transfected cells; host or cells: CHO-K1 (methods)
As to the kind of experiment: Rat GPR40 IP1 accumulation assay. Format: cell-based. How it is done: (§1) Stable cell lines expressing human GPR40 (hGPR40/HEK293), mouse GPR40 (mGPR40/CHO-K1), and rat GPR40 (rGPR40/CHO-K1) were cultured in DMEM media supplemented with 10% FBS, glutamine, non-essential amino acids, and penicillin/streptomycin. hGPR40/HEK293 & mGPR40/CHO-K1 cell media was supplemented with […] G418 (Life Technologies), while rGPR40/CHO-K1 cells were grown in […] blasticidin plus […] hygromycin (Life Technologies). Cell stocks were maintained and grown in a sub-confluent state using standard cell culture procedures. The day before the experiment, the cells were harvested with non-enzymatic cell dissociation buffer and re-suspended in DMEM supplemented with 10% FBS, glutamine, non-essential amino acids, penicillin/streptomycin at 0.15, 0.2 and 0.3 million cells per ml for human, mouse, and rat GPR40, respectively. […] The seeded plates were incubated overnight at 37 C.
(§2) On the day of the experiment, the growth media was removed from the assay by gently patting the assay plates on an absorbent sheet and 10 μl of IP1 stimulation buffer (Cis Bio IP-one Tb HTRF kit) supplemented with 50 mM LiCl is added to each well. Test compounds dissolved in DMSO were serially diluted in ½ log increments starting from 2 mM or 0.2 mM and 50 nl of the compound dilution was acoustically added to each well (final starting concentration 10 μM or 1 μM). Plates were then incubated for 60 minutes at room temperature and 10 μl of detection buffer (prepared as described in the Tb kit) is added to each well. The plates are then incubated one additional hour at room temperature. […] For each assay, a standard curve plate in which IP1 is titrated is also included. […] The percent activity at each concentration of test compound is determined using 0% activation (basal activity) determined in those wells that contain DMSO alone, while 100% activity is determined in wells that contained a concentration of a partial allosteric agonist know to activate GPR40. The % activity is then plotted versus the concentration of test compound and the dose response curve fitted to a standard 4-parameter non-linear regression model using a custom in-house developed software package (Merck & Co., Inc., MRL, Kenilworth, NJ, USA). Maximal % activity and EC50 are then determined for each test compound.

Another assay concerns the target T2, mouse GPR40 (Mus musculus, UniProt Q76JU9).
T2 construct: expressed in transfected cells; host or cells: CHO-K1 (methods)
As to the kind of experiment: Mouse GPR40 IP1 accumulation assay. Format: cell-based. How it is done: as §1, §2

In assay [1] the test system is GK rats. The experiment in a line: GK rat chronic efficacy (28 days: glucose, food intake, body weight, GLP-1, GIP, PYY, insulin, glucagon). Format: in vivo. Particulars: 30 mpk, day 28, fed, individual animals. On the procedure: At the start of the study, fed (ambient) blood glucose was measured via glucometer at 1 h post lights on, and animals were selected and sorted into treatment groups based on ambient glucose (n = 10/ GK group, n = 6 WKY control). Blood for baseline incretin measurements was collected in the PM via tail vein. Rats were dosed via oral gavage (PO) at a volume of 5 ml/kg daily at approximately 12:30 PM with either vehicle (0.5% methylcellulose), AP1 at 30 mg/kg, or AP3 at 30 mg/kg. MK-8666, a GPR40 partial agonist synthesized at Merck & Co., Inc., Kenilworth, NJ USA [13], at 30 mg/kg was administered in feed (Research Diets, New Brunswick, NJ) and provided ad lib. All compounds were administered to achieve maximal efficacious exposures determined in acute efficacy studies similar to those acute studies described above. In brief, partial agonists and AgoPAMs were titrated in the acute GK rat experiment described above and the exposure associated with maximal efficacy in glucose lowering was noted. Partial agonists and AgoPAMs were then dosed to maintain those exposures up to 24h post dose. […] Rats from this group and the WKY controls were administered vehicle PO when the vehicle, AP1, and AP3 groups were treated. Fed blood glucose, food intake, and body weights were determined on days 10, 17, 23, and 28 of study at 2 h post lights on. Immediately after these measures were taken on days 10, 17, 23, and 28, food was removed. After 5h of fasting, animals were dosed with vehicle or compound and allowed to rest for an additional hour. Glucose, GLP-1, GIP, and PYY were measured after 6h of fasting at 1 hr post dose. Fed blood glucose is described by animals having had ad libidum access to feed up till the time of sampling and occurred at 2h post-lights on where rats were nearing the end of their nocturnal feeding cycle. Fasted blood glucose is described by blood glucose sampled after 6h of fasting where food was removed at 2h post lights on. Please note that the fasted sample was taken 1h post oral dosing. On day 10, blood was collected from the tail vein (20 μl) after morning glucose measures and after 6 hour fast from a subset of n = 3 rats per treatment group to determine the fed and fasted exposure of the compounds in circulation. The blood was stored at 4°C in 0.1 M sodium citrate for subsequent analysis of drug exposure.
Blood for insulin, glucagon, GLP-1, GIP, and PYY measurements was collected into K2EDTA Microtainer tubes (BD, Franklin Lakes, NJ) pre-treated with DPP4 inhibitor (Millipore, Billerica, MA) and cOmplete™ Protease Inhibitor Cocktail Tablets (Roche Diagnostics, Indianapolis, IN). Tubes were centrifuged for 10 minutes at 5000 RPM, and plasma was aliquotted for analysis. Plasma insulin levels were measured via EIA (Mesoscale Discovery ELISA Kit, Gaithersburg MD). Rat plasma total GLP-1 was measured using Total GLP-1 (ver.2) Assay Kit (Cat#: K150JVC). The measurement of active GLP-1 was carried out in a similar manner as that described for total GLP-1 assay with the exception that MSD Active GLP-1 (ver. 2) assay kit (Cat# K150JWC) was used. Rat plasma glucagon was measured using an in-house glucagon assay developed as a MSD format sandwich immunoassay (Merck & Co., Inc., MRL, Kenilworth, NJ USA). The antibody specificity was cross validated via mass- spec using procedures described in Lee et al. Briefly, MSD Streptavidin Gold plates were coated with 2 μg/ml biotin mouse monoclonal antibody generated to glucagon. Test samples were added to the plates and a separate Sulfo- tagged monoclonal antibody was used to detect the captured glucagon protein (2 μg/ml). The ELISA was carried out in the standard reagents in the MSD format. The plate was read on the SECTOR Imager 6000 Reader. Metabolic hormones GIP (Gastric Inhibitory Polypeptide) and PYY (Peptide YY) were measured in rat plasma using the Rat Metabolic Magnetic Bead Panel (EMD Millipore, Billerica, MA). The assay was performed according to manufacturer protocol. […]

Assay [2] relates to GK rats. The experiment in a line: GK rat acute efficacy (glucose, insulin, glucagon after single dose). In kind it is in vivo. The conditions noted are these: 100 mpk. On the procedure: Ambient blood glucose was measured via tail snip with a glucometer (OneTouch Ultra, Lifescan Inc., Milpitas, CA). Body weights were then measured, and food was removed approximately 1 hr post lights on. Animals were sorted into treatment groups based on ambient glucose. At approximately 10 AM, glucose was measured and blood for insulin, glucagon, and drug exposure was collected. […] Each compound tested was dosed at its maximal effective dose determined through a series of dose titrations using this experimental paradigm (data not shown). Effects of treatment on glucose, insulin, and glucagon were measured at 1, 2, 4, and 24 hrs post dose. After the 4 hr blood collection, food was returned overnight and removed the next day at 1 hr post lights on.
Blood for insulin, glucagon, GLP-1, GIP, and PYY measurements was collected into K2EDTA Microtainer tubes (BD, Franklin Lakes, NJ) pre-treated with DPP4 inhibitor (Millipore, Billerica, MA) and cOmplete™ Protease Inhibitor Cocktail Tablets (Roche Diagnostics, Indianapolis, IN). Tubes were centrifuged for 10 minutes at 5000 RPM, and plasma was aliquotted for analysis. Plasma insulin levels were measured via EIA (Mesoscale Discovery ELISA Kit, Gaithersburg MD). Rat plasma total GLP-1 was measured using Total GLP-1 (ver.2) Assay Kit (Cat#: K150JVC). The measurement of active GLP-1 was carried out in a similar manner as that described for total GLP-1 assay with the exception that MSD Active GLP-1 (ver. 2) assay kit (Cat# K150JWC) was used. Rat plasma glucagon was measured using an in-house glucagon assay developed as a MSD format sandwich immunoassay (Merck & Co., Inc., MRL, Kenilworth, NJ USA). The antibody specificity was cross validated via mass- spec using procedures described in Lee et al. Briefly, MSD Streptavidin Gold plates were coated with 2 μg/ml biotin mouse monoclonal antibody generated to glucagon. Test samples were added to the plates and a separate Sulfo- tagged monoclonal antibody was used to detect the captured glucagon protein (2 μg/ml). The ELISA was carried out in the standard reagents in the MSD format. The plate was read on the SECTOR Imager 6000 Reader. Metabolic hormones GIP (Gastric Inhibitory Polypeptide) and PYY (Peptide YY) were measured in rat plasma using the Rat Metabolic Magnetic Bead Panel (EMD Millipore, Billerica, MA). The assay was performed according to manufacturer protocol.

T1 sequence (Q8K3T4 whole entry): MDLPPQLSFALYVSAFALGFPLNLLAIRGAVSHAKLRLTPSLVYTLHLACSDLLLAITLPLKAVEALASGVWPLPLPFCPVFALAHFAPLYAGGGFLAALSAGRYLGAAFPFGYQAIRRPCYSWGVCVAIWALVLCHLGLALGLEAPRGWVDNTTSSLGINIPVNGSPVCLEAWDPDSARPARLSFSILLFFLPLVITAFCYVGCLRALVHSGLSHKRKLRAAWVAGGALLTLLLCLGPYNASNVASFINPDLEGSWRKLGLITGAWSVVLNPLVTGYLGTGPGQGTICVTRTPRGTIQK
T2 sequence (Q76JU9 whole entry): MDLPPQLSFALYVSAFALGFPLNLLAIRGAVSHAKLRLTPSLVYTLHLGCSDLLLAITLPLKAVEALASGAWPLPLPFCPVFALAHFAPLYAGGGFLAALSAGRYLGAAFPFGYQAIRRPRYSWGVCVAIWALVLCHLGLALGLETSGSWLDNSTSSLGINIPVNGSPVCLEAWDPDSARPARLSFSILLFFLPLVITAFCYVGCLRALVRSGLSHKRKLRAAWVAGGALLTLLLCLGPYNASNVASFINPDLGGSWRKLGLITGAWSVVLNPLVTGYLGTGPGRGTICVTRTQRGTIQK

For orientation: EC50 means the concentration that produces a half-maximal response. For the molecule `CC#C[C@@H](CC(=O)O)c1ccc(OCc2cccc(-c3ccc(C(F)(F)F)cc3)c2)cc1` [AMG-837, reference compound], the EC50 on rat GPR40 (EC50 (nM), Rat GPR40, Functional Assay, individual determinations) is 1.9 nM and 1.6 nM and 1.2 nM and 0.9 nM and 1.8 nM and 1.1 nM; on rat GPR40 (individual determinations, read-out: EC50 (nM), Rat GPR40, Functional Assay), 1.3 nM and 2.2 nM; on rat GPR40 (mean ± SD, n = 2–20, IP accumulation, read-out: Potency [EC50, nM] ± SD, Rat) it was 1.5 ± 0.41 nM; on mouse GPR40 (EC50 (nM), Mouse GPR40, Functional Assay, individual determinations), 2.6 nM and 3.6 nM and 1.7 nM and 1.1 nM and 1.8 nM; on mouse GPR40 (Potency [EC50, nM] ± SD, Mouse, mean ± SD, n = 2–20, IP accumulation), 1.9 ± 0.76 nM; on mouse GPR40 (individual determinations, read-out: EC50 (nM), Mouse GPR40, Functional Assay), 2 nM.

For the molecule `C[C@H](C(=O)O)[C@H](c1ccc2c(c1)O[C@H](C1CN(Cc3cc(C(F)(F)F)ccc3C(F)(F)F)C1)CC2)C1CC1` [P3], in the assay on GK rats [1], the “Fed glucose on day 28 (Fig 3B)” value was 141 and 132 and 113 and 119 and 112 and 106 and 116 and 101.

With `Cc1cc(OCCCS(C)(=O)=O)cc(C)c1-c1cccc(COc2ccc3c(c2)OC[C@H]3CC(=O)O)c1` [TAK], the “Plasma Glucagon Over Time (Fig 2C)” value in the assay with GK rats [2] (time 0, individual animals) is 75.2366 pg/mL and 59.5419 pg/mL and 46.7473 pg/mL and 119.065 pg/mL and 82.5246 pg/mL and 83.5453 pg/mL and 74.4881 pg/mL and 90.3444 pg/mL; with GK rats [2] (time 1, individual animals), 168.277 pg/mL and 120.989 pg/mL and 104.57 pg/mL and 184.364 pg/mL and 130.682 pg/mL and 112.051 pg/mL and 81.0192 pg/mL and 132.45 pg/mL; in the assay with GK rats [2] (time 2, individual animals) it was 165.323 pg/mL and 244.359 pg/mL and 138.27 pg/mL and 211.843 pg/mL and 72.9369 pg/mL and 186.55 pg/mL and 94.6201 pg/mL and 160.38 pg/mL; with GK rats [2] (time 4, individual animals) it was 85.2047 pg/mL and 62.7395 pg/mL and 105.981 pg/mL and 18.1244 pg/mL and 124.809 pg/mL and 199.712 pg/mL and 103.043 pg/mL and 175.312 pg/mL; with GK rats [2] (time 24, individual animals), 86.4436 pg/mL and 115.249 pg/mL and 67.5931 pg/mL and 36.8268 pg/mL and 81.8289 pg/mL and 118.991 pg/mL and 35.1523 pg/mL and 94.7909 pg/mL. In addition, the “Plasma Insulin Over Time (Fig 2B)” value is 2.655 ng/mL and 1.525 ng/mL and 2.703 ng/mL and 2.889 ng/mL and 1.936 ng/mL and 1.972 ng/mL and 2.503 ng/mL and 2.551 ng/mL in the assay with GK rats [2] (time 0, individual animals); 3.3854 ng/mL and 2.854 ng/mL and 4.397 ng/mL and 4.229 ng/mL and 2.551 ng/mL and 2.055 ng/mL and 2.175 ng/mL and 2.74 ng/mL in the assay on GK rats [2] (time 1, individual animals); 2.858 ng/mL and 2.437 ng/mL and 3.152 ng/mL and 3.268 ng/mL and 1.276 ng/mL and 1.644 ng/mL and 1.778 ng/mL and 2.202 ng/mL with GK rats [2] (time 2, individual animals); 1.494 ng/mL and 1.787 ng/mL and 2.636 ng/mL and 1.66 ng/mL and 1.848 ng/mL and 1.214 ng/mL and 2.191 ng/mL and 1.8763 ng/mL with GK rats [2] (time 4, individual animals); 1.093 ng/mL and 1.2004 ng/mL and 2.002 ng/mL and 0.9338 ng/mL and 1.238 ng/mL and 1.808 ng/mL and 1.437 ng/mL and 1.841 ng/mL with GK rats [2] (time 24, individual animals).
